According to patent US20230091047A1 (priority 2019, published 2023):
Like-named read-outs stand apart in the source and are kept apart here.

How the values were obtained:
[1] = test system: HBV (HepG2.117 cell line, inducibly HBV producing); assay: Anti-HBV activity: intracellular HBV DNA by real-time PCR in HepG2.117 cells after 3 days of treatment; assay type: cell-based, hepatitis B virus
Outline: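 Inducible HBV-producing HepG2.117 line (Tet-off); 3-day exposure to serially diluted compound after induction; real-time PCR of intracellular viral DNA.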

[2] = in vitro; assay type: cell-based; details: human, HepG2 or HepG2.117 cells, ATPlite, mean value
Outline: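 Luminescent ATP quantitation served as the viability endpoint following a 3- or 4-day incubation with test compounds.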

[3] = Hepatitis B virus, HepG2.117, 72 h, HepG2.117 cells, intracellular HBV DNA by real-time PCR, 3 days of treatment, mean value; read-out: EC50 (μM, mean value)
[4] = 3-days incubation (not marked with *)
[5] = Hepatitis B virus, HepG2.117, 72 h, HepG2.117 cells, 3 days of treatment, intracellular HBV DNA by real-time PCR; mean value; read-out: EC50 (μM, mean value)
[6] = 3-days incubation (unmarked values)

Row | SMILES | EC50 [1, 3] [µM] | CC50 at 3 days [2, 4] [µM] | EC50 [1, 5] [µM] | CC50 at 3 days [2, 6] [µM]
1 | CNC(=O)c1ccc(-n2c(NCCCc3nc(=O)[nH][nH]3)nc3c(c2=O)C[C@@H](C)N(C(=O)c2ccc(Cl)c(Cl)c2)C3)cc1 [Compound C599] | > 25 | > 50 |  | 
2 | Cc1nc(-c2ccc(-n3c(NC(C)C)nc4c(c3=O)C[C@@H](C)N(C(=O)c3ccc(Cl)c(Cl)c3)C4)cc2)c[nH]1 [Compound C244, (6R)-7-(3,4-dichlorobenzoyl)-6-methyl-3-[4-(2-methyl-1H-imidazol-4-yl)phenyl]-2-[(propan-2-yl)amino]-5,6,7,8-tetrahydropyrido[3,4-d]pyrimidin-4(3H)-one] |  |  | 0.12 | 22.9
3 | CNC(=O)[C@H]1CC[C@H](n2c(NC(C)C)nc3c(c2=O)C[C@@H](C)N(C(=O)c2ccc(Cl)c(Cl)c2)C3)CC1 [Compound C255, trans-4-[(6R)-7-(3,4-dichlorobenzoyl)-6-methyl-4-oxo-2-[(propan-2-yl)amino]-5,6,7,8-tetrahydropyrido[3,4-d]pyrimidin-3(4H)-yl]-N-methylcyclohexane-1-carboxamide] |  |  | 0.09 | > 50
4 | CNC(=O)c1ccc(-n2c(N[C@@H](C)c3nc[nH]n3)nc3c(c2=O)C[C@@H](C)N(C(=O)c2ccc(Cl)c(Cl)c2)C3)cc1 (single isomer, unassigned) [Compound C439b] | > 10 | > 50 |  | 
5 | CNC(=O)c1ccc(-n2c(NC(C)c3ncn(C)n3)nc3c(c2=O)C[C@@H](C)N(C(=O)c2ccc(Cl)c(Cl)c2)C3)cc1 (some centres unmarked) [Compound C484] | 3.09 | > 50 |  | 
6 | CNC(=O)c1ccc(-n2c(NC(C)C)nc3c(c2=O)C[C@@H](C)N(C(=O)c2cc4ccncc4s2)C3)cc1 [Compound C503] | 6.32 | > 50 |  | 
7 | CC(C)Nc1nc2c(c(=O)n1-c1ccc(S(C)(=O)=O)cc1)CCN(C(=O)c1ccc(Cl)c(C(C)C)c1)C2 [Compound C222, 7-[4-chloro-3-(propan-2-yl)benzoyl]-3-[4-(methanesulfonyl)phenyl]-2-[(propan-2-yl)amino]-5,6,7,8-tetrahydropyrido[3,4-d]pyrimidin-4(3H)-one] |  |  | 1.45 | > 50
8 | C#C[C@@H]1CCCN1c1nc2c(c(=O)n1-c1ccc(C(=O)NC)cc1)C[C@@H](C)N(C(=O)c1ccc(Cl)c(Cl)c1)C2 (single isomer, unassigned) [Compound C351, 4-[(6R)-7-(3,4-dichlorobenzoyl)-2-[(2*S)-2-ethynylpyrrolidin-1-yl]-6-methyl-4-oxo-5,6,7,8-tetrahydropyrido[3,4-d]pyrimidin-3(4H)-yl]-N-methylbenzamide] |  |  | 0.2 | > 50
9 | COc1ccccc1-n1c(N2CCOCC2)nc2c(c1=O)CCN(C(=O)c1ccc(Cl)c(Cl)c1)C2 [Compound C40, 7-(3,4-dichlorobenzoyl)-3-(2-methoxyphenyl)-2-(morpholin-4-yl)-5,6,7,8-tetrahydropyrido[3,4-d]pyrimidin-4(3H)-one] |  |  | 11 | > 50
10 | CNC(=O)c1ccc(-n2c(N[C@@H](C)c3ccccc3)nc3c(c2=O)C[C@@H](C)N(C(=O)c2ccc(Cl)c(Cl)c2)C3)cc1 [Compound C253, 4-[(6R)-7-(3,4-dichlorobenzoyl)-6-methyl-4-oxo-2-{[(1S)-1-phenylethyl]amino}-5,6,7,8-tetrahydropyrido[3,4-d]pyrimidin-3(4H)-yl]-N-methylbenzamide] |  |  | 0.1 | 22.9
11 | CC(C)Nc1nc2c(c(=O)n1-c1ccc(S(C)(=O)=O)cc1)C[C@H](C)N(C(=O)c1ccc(Cl)c(Cl)c1)C2 [Compound C100B, (6S)-7-(3,4-dichlorobenzoyl)-3-[4-(methanesulfonyl)phenyl]-6-methyl-2-[(propan-2-yl)amino]-5,6,7,8-tetrahydropyrido[3,4-d]pyrimidin-4(3H)-one] |  |  | 10.1 | > 50
12 | CNC(=O)c1ccc(-n2c(N3CCOC(C)C3)nc3c(c2=O)C[C@@H](C)N(C(=O)c2ccc(Cl)c(Cl)c2)C3)cc1 (some centres unmarked) [Compound C470] | > 25 | > 50 |  | 
13 | CC(C)Nc1nc2c(c(=O)n1-c1ccc(C(=O)NCCN)cc1)C[C@@H](C)N(C(=O)c1ccc(Cl)c(Cl)c1)C2 [Compound C197, N-(2-aminoethyl)-4-[(6R)-7-(3,4-dichlorobenzoyl)-6-methyl-4-oxo-2-[(propan-2-yl)amino]-5,6,7,8-tetrahydropyrido[3,4-d]pyrimidin-3(4H)-yl]benzamide] |  |  | 1.81 | > 50
14 | CNC(=O)c1ccc(-n2c(NCc3cccnc3)nc3c(c2=O)C[C@@H](C)N(C(=O)c2ccc(Cl)c(Cl)c2)C3)cc1 [Compound C378] | 5.73 | > 50 |  | 
15 | COc1ccccc1-n1c(N[C@@H](C)c2ccccc2)nc2c(c1=O)CCN(C(=O)c1ccc(Cl)c(Cl)c1)C2 [Compound C35, 7-(3,4-dichlorobenzoyl)-3-(2-methoxyphenyl)-2-{[(1S)-1-phenylethyl]amino}-5,6,7,8-tetrahydropyrido[3,4-d]pyrimidin-4(3H)-one] |  |  | 1.41 | 33.2
16 | COc1ccc(CNc2nc3c(c(=O)n2C2CCCC2)CCN(C(=O)c2ccc(Cl)c(Cl)c2)C3)cc1 [Compound C73, 3-cyclopentyl-7-(3,4-dichlorobenzoyl)-2-{[(4-methoxyphenyl)methyl]amino}-5,6,7,8-tetrahydropyrido[3,4-d]pyrimidin-4(3H)-one] |  |  | 9.37 | > 50

Row | SMILES | EC50 [1, 3] [µM] | CC50 at 3 days [2, 4] [µM] | EC50 [1, 5] [µM] | CC50 at 3 days [2, 6] [µM]
17 | CC(C)Nc1nc2c(c(=O)n1-c1ccc(C(=O)NC3CC3)cc1Cl)C[C@@H](C)N(C(=O)c1ccc(Cl)c(C(F)(F)F)c1)C2 (single isomer, unassigned) [Compound C673a] | 0.03 | > 25 |  | 
18 | CNC(=O)c1cc(-n2c(N[C@@H](C)c3ccc(C(F)(F)F)cc3)nc3c(c2=O)C[C@@H](C)N(C(=O)c2ccc(Cl)c(Cl)c2)C3)[nH]n1 [Compound C630] | 0.11 | 20.7 |  | 
19 | COc1cc(C(=O)NC2CC2)ccc1-n1c(NC(C)C)nc2c(c1=O)C[C@@H](C)N(C(=O)c1ccc(Cl)c(C(F)(F)F)c1)C2 (single isomer, unassigned) [Compound C678a] | 0.04 | 43 |  | 
20 | Cc1cc(-n2cccn2)ccc1-n1c(NC(C)C)nc2c(c1=O)C[C@@H](C)N(C(=O)c1ccc(Cl)c(Cl)c1)C2 [Compound C308, (6R)-7-(3,4-dichlorobenzoyl)-6-methyl-3-[2-methyl-4-(1H-pyrazol-1-yl)phenyl]-2-[(propan-2-yl)amino]-5,6,7,8-tetrahydropyrido[3,4-d]pyrimidin-4(3H)-one] |  |  | 0.11 | > 50
21 | COc1ccc(CN(c2nc3c(c(=O)n2-c2ccc(Br)cc2)C[C@@H](C)N(C(=O)c2ccc(Cl)c(Cl)c2)C3)C(C)C)c(OC)c1 [Compound C691] | 2.45 | > 50 |  | 
22 | Cc1noc(-c2ccc(-n3c(NC(C)C)nc4c(c3=O)C[C@@H](C)N(C(=O)c3ccc(Cl)c(Cl)c3)C4)cc2)n1 [Compound C371] |  |  | 0.13 | > 50
23 | CNC(=O)c1ccc(-n2c(N[C@H](C)c3ccc(OC(F)(F)F)cc3)nc3c(c2=O)C[C@@H](C)N(C(=O)c2ccc(Cl)c(Cl)c2)C3)cc1 (single isomer, unassigned) [Compound C440a] | 5.42 | 25 |  | 
24 | CNC(=O)c1ccc(-n2c(N3CCCOC(C)C3)nc3c(c2=O)C[C@@H](C)N(C(=O)c2ccc(Cl)c(Cl)c2)C3)cc1 (some centres unmarked) [Compound C558] | 0.46 | > 50 |  | 
25 | CNC(=O)c1ccc(-n2c(NC3(c4ccccc4)CC3)nc3c(c2=O)C[C@@H](C)N(C(=O)c2ccc(Cl)c(Cl)c2)C3)cc1 [Compound C662] | 0.16 | 30.5 |  | 
26 | CC(C)Nc1nc2c(c(=O)n1-c1ccc(S(C)(=O)=O)cc1)CCN(C(=O)c1ccc3c(c1)CCO3)C2 [Compound C155, 7-(2,3-dihydro-1-benzofuran-5-carbonyl)-3-[4-(methanesulfonyl)phenyl]-2-[(propan-2-yl)amino]-5,6,7,8-tetrahydropyrido[3,4-d]pyrimidin-4(3H)-one] |  |  | 5.29 | > 50
27 | CNC(=O)c1ccc(-n2c(N(C)Cc3cnn(-c4ccccc4)n3)nc3c(c2=O)C[C@@H](C)N(C(=O)c2ccc(Cl)c(Cl)c2)C3)cc1 [Compound C603] | 0.21 | > 50 |  | 
28 | CC(C)Nc1nc2c(c(=O)n1-c1ccc(-c3ncc(F)cc3F)cc1)CCN(C(=O)c1ccc(Cl)c(Cl)c1)C2 [Compound C171, 7-(3,4-dichlorobenzoyl)-3-[4-(3,5-difluoropyridin-2-yl)phenyl]-2-[(propan-2-yl)amino]-5,6,7,8-tetrahydropyrido[3,4-d]pyrimidin-4(3H)-one] |  |  | 3.95 | 4.6
29 | CNC(=O)c1ccc(-n2c(N[C@H](C)c3ccc4[nH]cnc4c3)nc3c(c2=O)C[C@@H](C)N(C(=O)c2ccc(Cl)c(Cl)c2)C3)cc1 (single isomer, unassigned) [Compound C647a] | > 2.5 | > 50 |  | 
30 | CNC(=O)c1ccc(-n2c(N(C)Cc3cnc4ccc(Cl)cn34)nc3c(c2=O)C[C@@H](C)N(C(=O)c2ccc(Cl)c(Cl)c2)C3)cc1 [Compound C562] | 2.87 | 26.8 |  | 
31 | CNC(=O)c1ccc(-n2c(NC3CC3(C)C)nc3c(c2=O)C[C@@H](C)N(C(=O)c2ccc(Cl)c(Cl)c2)C3)cc1 (stereo partly drawn) [Compound C333, 4-[(6R)-7-(3,4-dichlorobenzoyl)-2-[(2,2-dimethylcyclopropyl)amino]-6-methyl-4-oxo-5,6,7,8-tetrahydropyrido[3,4-d]pyrimidin-3(4H)-yl]-N-methylbenzamide] |  |  | 1.64 | > 43
